Experiments:
tTA-45 (L170V) = biological target: T1, tTA-45 (L170V) (Escherichia coli, UniProt P04483, L170V); assay: Inducer-dependent repression of luciferase activity by tTA-45, transient transfection in HeLa cells; assay type: cell-based
T1 construct: expressed in transfected cells; host or cells: HeLa cells, transient transfection
Experimental: One mutant that was isolated from this screen, tTA-45, was sequenced and found to carry an amino acid exchange at position 170 from a leucine to a valine (L170V). The induction efficiency of tTA-45 in response to varying concentrations of Tc or Dox was determined in transient transfection assays in HeLa cells. The inducer concentration leading to 50% repression of the luciferase activity (IC50) was determined and is described in Table 3 below.

tTA (Wildtype) = biological target: T2, tTA (Wildtype) (Escherichia coli, UniProt P04483); assay: Inducer-dependent repression of luciferase activity by tTA, transient transfection in HeLa cells; assay type: cell-based
T2 construct: expressed in transfected cells; host or cells: HeLa cells, transient transfection
T2 sequence (P04483 whole entry, added parts left off): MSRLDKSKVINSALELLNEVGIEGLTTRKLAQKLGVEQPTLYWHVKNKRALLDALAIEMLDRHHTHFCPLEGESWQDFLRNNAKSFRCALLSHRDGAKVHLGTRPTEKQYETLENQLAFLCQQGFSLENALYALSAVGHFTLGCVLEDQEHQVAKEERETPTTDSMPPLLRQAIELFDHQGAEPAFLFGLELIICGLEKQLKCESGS

T1 sequence (P04483 other isoform, or with tags, fused parts or gaps L170V): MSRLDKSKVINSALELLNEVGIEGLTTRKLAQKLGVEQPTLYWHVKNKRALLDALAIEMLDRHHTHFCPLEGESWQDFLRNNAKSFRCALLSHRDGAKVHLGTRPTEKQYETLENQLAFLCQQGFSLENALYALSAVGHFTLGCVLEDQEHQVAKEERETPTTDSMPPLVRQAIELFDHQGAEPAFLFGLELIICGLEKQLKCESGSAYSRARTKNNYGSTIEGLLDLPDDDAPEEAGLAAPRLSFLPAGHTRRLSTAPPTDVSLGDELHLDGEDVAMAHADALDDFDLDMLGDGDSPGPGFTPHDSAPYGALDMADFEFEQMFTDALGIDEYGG

SMILES	IC50 (tTA-45 (L170V))	IC50 (tTA (Wildtype))
C[C@H]1c2cccc(O)c2C(=O)C2=C(O)[C@]3(O)C(=O)C(C(N)=O)=C(O)[C@@H](N(C)C)[C@@H]3[C@@H](O)[C@@H]21 [Dox, doxycycline]	11.3 nM	1.35 nM
CN(C)[C@@H]1C(O)=C(C(N)=O)C(=O)[C@@]2(O)C(O)=C3C(=O)c4c(O)cccc4[C@@](C)(O)[C@H]3C[C@@H]12 [Tc, tetracycline]	608 nM	6.75 nM
